Measured values: ChEMBL document CHEMBL4725408, “Antibacterial Spiropyrimidinetriones with N-Linked Azole Substituents on a Benzisoxazole Scaffold Targeting DNA Gyrase” (J Med Chem, 2020)
In brackets after ≈: the same amount, converted by molar mass.

Assays:
[1] = Solubility of the compound by high throughput solubility assay; format: physicochemical
Staphylococcus aureus [2] = experiment: Antibacterial activity against methicillin sensitive Staphylococcus aureus ARC516 in presence of human serum by broth microdilution method; format: functional
Staphylococcus aureus [3] = experiment: Antibacterial activity against methicillin sensitive Staphylococcus aureus ARC516 by broth microdilution method; format: functional
Streptococcus pyogenes = experiment: Antibacterial activity against Streptococcus pyogenes ARC838 by broth microdilution method; format: functional
[4] = n-octanol/phosphate buffer partition coefficient, log D of the compound at pH 7.4 measured after 1 hr by UV-LC/MS based shake flask method; format: physicochemical
Staphylococcus aureus [5] = experiment: Antibacterial activity against methicillin/quinolone-resistant Staphylococcus aureus ARC517 by broth microdilution method; format: functional
Haemophilus influenzae = experiment: Antibacterial activity against Haemophilus influenzae ARC737 by broth microdilution method; format: functional
[6] = Inhibition of recombinant Escherichia coli DNA gyrase AB expressed in Escherichia coli BL21 (DE3) using relaxed pJT519 DNA as substrate preincubated for 20 mins followed by 5'-BODIPY-TMR-TTCTTCTTCT addition and measured after 1 hr by fluorescence anisotropy
[7] = Protein binding in human plasma assessed as unbound fraction at 10 uM measured after 16 hrs by LC-MS/MS based equilibrium dialysis method; format: ADME, cell-free
Escherichia coli = experiment: Antibacterial activity against Escherichia coli ARC523 by broth microdilution method; format: functional
Streptococcus pneumoniae = experiment: Antibacterial activity against Streptococcus pneumoniae ARC548 by broth microdilution method; format: functional
[8] = Ratio of MIC for antibacterial activity against methicillin/quinolone-resistant Staphylococcus aureus ARC517 to protein binding in human plasma assessed as unbound fraction

Structure (SMILES)	solubility [1]	MIC (Staphylococcus aureus [2])	MIC (Staphylococcus aureus [3])	MIC (Streptococcus pyogenes)	logD at 1 h [4]	MIC (Staphylococcus aureus [5])	MIC (Haemophilus influenzae)	IC50 [6]	fraction unbound at 16 h, 10 µM [7]	MIC (Escherichia coli)	MIC (Streptococcus pneumoniae)	Ratio [8]
C[C@@H]1CN2c3c(cc4c(-n5ncnc5NCCO)noc4c3F)CC3(C(=O)NC(=O)NC3=O)[C@H]2[C@H](C)O1	625 µM (≈ 322 µg/mL)	< 0.2 µM	0.39 µM (≈ 0.201 µg/mL)	0.39 µM (≈ 0.201 µg/mL)	1.6	0.78 µM (≈ 0.401 µg/mL)	0.39 µM (≈ 0.201 µg/mL)	0.27 µM	0.14	25 µM (≈ 12.9 µg/mL)	0.39 µM (≈ 0.201 µg/mL)	–
CNS(=O)(=O)c1cnn(-c2noc3c(F)c4c(cc23)CC2(C(=O)NC(=O)NC2=O)[C@H]2[C@H](C)O[C@H](C)CN42)c1	21 µM (≈ 11.5 µg/mL)	1.6 µM	0.39 µM (≈ 0.214 µg/mL)	–	2.2	1.56 µM (≈ 0.854 µg/mL)	–	0.61 µM	0.068	50 µM (≈ 27.4 µg/mL)	–	23
C[C@@H]1CN2c3c(cc4c(-n5ncnc5[C@H](C)O)noc4c3F)CC3(C(=O)NC(=O)NC3=O)[C@H]2[C@H](C)O1	960 µM (≈ 479 µg/mL)	1.6 µM	0.78 µM (≈ 0.39 µg/mL)	1.6 µM (≈ 0.799 µg/mL)	1.3	1.6 µM (≈ 0.799 µg/mL)	1.6 µM (≈ 0.799 µg/mL)	0.43 µM	0.21	79 µM (≈ 39.5 µg/mL)	1.6 µM (≈ 0.799 µg/mL)	–
COCCNc1ncnn1-c1noc2c(F)c3c(cc12)CC1(C(=O)NC(=O)NC1=O)[C@H]1[C@H](C)O[C@H](C)CN31	6 µM (≈ 3.17 µg/mL)	< 0.2 µM	0.039 µM (≈ 0.0206 µg/mL)	< 0.2 µM	2.2	0.098 µM (≈ 0.0518 µg/mL)	0.39 µM (≈ 0.206 µg/mL)	0.038 µM	0.077	25 µM (≈ 13.2 µg/mL)	< 0.2 µM	–
C[C@@H]1CN2c3c(cc4c(-n5ncnc5[C@@H](C)O)noc4c3F)CC3(C(=O)NC(=O)NC3=O)[C@H]2[C@H](C)O1	920 µM (≈ 460 µg/mL)	0.78 µM	0.39 µM (≈ 0.195 µg/mL)	0.78 µM (≈ 0.39 µg/mL)	1.4	0.78 µM (≈ 0.39 µg/mL)	0.78 µM (≈ 0.39 µg/mL)	0.18 µM	0.23	50 µM (≈ 25 µg/mL)	0.78 µM (≈ 0.39 µg/mL)	–
C[C@H](O)CNc1ncnn1-c1noc2c(F)c3c(cc12)CC1(C(=O)NC(=O)NC1=O)[C@H]1[C@H](C)O[C@H](C)CN31	200 µM (≈ 106 µg/mL)	< 0.2 µM	< 0.2 µM	0.19 µM (≈ 0.1 µg/mL)	1.9	0.63 µM (≈ 0.333 µg/mL)	0.39 µM (≈ 0.206 µg/mL)	0.26 µM	0.12	25 µM (≈ 13.2 µg/mL)	0.19 µM (≈ 0.1 µg/mL)	–
C[C@@H]1CN2c3c(cc4c(-n5cccn5)noc4c3F)CC3(C(=O)NC(=O)NC3=O)[C@H]2[C@H](C)O1 (racemic)	29 µM (≈ 13.2 µg/mL)	3.1 µM	0.39 µM (≈ 0.177 µg/mL)	–	3	0.78 µM (≈ 0.354 µg/mL)	–	–	< 0.01	25 µM (≈ 11.4 µg/mL)	–	>80
C[C@@H]1CN2c3c(cc4c(-n5ncnc5NCCN5CCOCC5)noc4c3F)CC3(C(=O)NC(=O)NC3=O)[C@H]2[C@H](C)O1	150 µM (≈ 87.5 µg/mL)	0.78 µM	< 0.2 µM	0.39 µM (≈ 0.228 µg/mL)	2.1	3.5 µM (≈ 2.04 µg/mL)	1.6 µM (≈ 0.934 µg/mL)	0.31 µM	0.11	100 µM (≈ 58.4 µg/mL)	0.39 µM (≈ 0.228 µg/mL)	–
C[C@@H]1CN2c3c(cc4c(-n5ccnn5)noc4c3F)CC3(C(=O)NC(=O)NC3=O)[C@H]2[C@H](C)O1	130 µM (≈ 59.2 µg/mL)	0.78 µM	0.068 µM (≈ 0.031 µg/mL)	–	2	0.39 µM (≈ 0.178 µg/mL)	–	0.22 µM	0.054	6.25 µM (≈ 2.85 µg/mL)	–	7.2
C[C@@H]1CN2c3c(cc4c(-n5cnnc5)noc4c3F)CC3(C(=O)NC(=O)NC3=O)[C@H]2[C@H](C)O1	> 1000 µM	12.5 µM	6.25 µM (≈ 2.85 µg/mL)	–	0.54	25 µM (≈ 11.4 µg/mL)	–	0.3 µM	0.34	> 200 µM	–	74
C[C@@H]1CN2c3c(cc4c(-n5ncnc5NCC(=O)N5CC[C@@H](N(C)C)C5)noc4c3F)CC3(C(=O)NC(=O)NC3=O)[C@H]2[C@H](C)O1	690 µM (≈ 431 µg/mL)	0.2 µM	0.2 µM (≈ 0.125 µg/mL)	0.39 µM (≈ 0.244 µg/mL)	1.3	1.6 µM (≈ 0.999 µg/mL)	1.6 µM (≈ 0.999 µg/mL)	0.08 µM	0.26	25 µM (≈ 15.6 µg/mL)	< 0.2 µM	–
Cc1ncnn1-c1noc2c(F)c3c(cc12)CC1(C(=O)NC(=O)NC1=O)[C@H]1[C@H](C)O[C@H](C)CN31	22 µM (≈ 10.3 µg/mL)	0.39 µM	0.2 µM (≈ 0.0939 µg/mL)	0.55 µM (≈ 0.258 µg/mL)	2.1	0.39 µM (≈ 0.183 µg/mL)	1.6 µM (≈ 0.751 µg/mL)	0.34 µM	0.098	50 µM (≈ 23.5 µg/mL)	0.78 µM (≈ 0.366 µg/mL)	–
